Results taken from patent US20230312587A1, “PTERIDINONE COMPOUNDS AND USES THEREOF” (Vertex Pharmaceutical Incorporated, priority 2018, published 2023).
Like-named read-outs stand apart in the source and are kept apart here.

Tested on: β-catenin-TCF-mediated reporter transcription activity in Colo 205 cells
Test: Colo 205 reporter assay (TCF/LEF luciferase)
Type: cell-based
Details: Colo 205 TCF/LEF luciferase reporter, read-out: TCF reporter Colo205 IC50
How it was run: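 Luciferase signal from a TCF/LEF-driven reporter, stably integrated in Colo 205 colon cancer cells, was measured 5 h after compound addition.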

[1] = Homo sapiens, COLO 205, 5 h, five hours after addition of compound
[2] = Homo sapiens, COLO 205, 5 h, R-isomer at C2 (corresponding to C2 S-isomer), 5 h
[3] = five hours after addition of compound

## COc1cc(C(F)(F)F)ncc1Cn1cc(CNc2nc(C)c3c(n2)N(C)[C@@H](C)C(=O)N3)cn1 [Compound 210, (7S)-2-(((1-((4-methoxy-6-(trifluoromethyl)pyridin-3-yl)methyl)-1H-pyrazol-4-yl)methyl)amino)-4,7,8-trimethyl-7,8-dihydropteridin-6(5H)-one]
[1]
  IC50: < 300 nM

## Cc1nc(NC2CN(C(=O)c3ccn(C(F)F)n3)C2)nc2c1NC(=O)[C@H](C(C)C)N2C [Compound 614, (S)-2-((1-(1-(difluoromethyl)-1H-pyrazole-3-carbonyl)azetidin-3-yl)amino)-7-isopropyl-4,8-dimethyl-7,8-dihydropteridin-6(5H)-one]
[1]
  IC50: 1000 to 5000 nM

## O=C1Nc2cnc(NCc3cnn(Cc4ccc(F)cc4)c3)nc2N[C@H]1CCO [Compound 11, (7S)-2-(((1-(4-Fluorobenzyl)-1H-pyrazol-4-yl)methyl)amino)-7-(2-hydroxyethyl)-7,8-dihydropteridin-6(5H)-one]
[1]
  IC50: ≥ 5000 nM

## Cc1nc(Cn2cc(CNc3nc(C)c4c(n3)N(C)[C@@H](C)C(=O)N4)cn2)c(C)o1 [Compound 193, (7S)-2-(((1-((2,5-dimethyloxazol-4-yl)methyl)-1H-pyrazol-4-yl)methyl)amino)-4,7,8-trimethyl-7,8-dihydropteridin-6(5H)-one]
[1]
  IC50: 300 to 1000 nM

## Cc1nc(NCc2cnn(-c3cccc(C(F)(F)F)c3)c2)nc2c1NC(=O)[C@H](C)N2C [Compound 97, (7S)-4,7,8-trimethyl-2-(((1-(3-(trifluoromethyl)phenyl)-1H-pyrazol-4-yl)methyl)amino)-7,8-dihydropteridin-6(5H)-one]
[1]
  IC50: < 300 nM

## Cc1nc(N[C@H]2C[C@@H](Sc3ccc(F)cc3)C2)nc2c1NC(=O)[C@H](C)N2C [Compound 304, (7S)-2-((cis-3-((4-fluorophenyl)thio)cyclobutyl)amino)-4,7,8-trimethyl-7,8-dihydropteridin-6(5H)-one]
[1]
  IC50: 300 to 1000 nM

## Cc1nc(NCc2cnn(Cc3ccnc(C#N)c3)c2)nc2c1NC(=O)[C@@H](C)N2C [Compound I-1649]
[2]
  IC50: ≥ 5000 nM

## Cc1nc(N[C@H]2C[C@@H](NC(=O)Nc3ccc(F)cc3)C2)nc2c1NC(=O)[C@H](C)N2C [Compound 458, 1-(4-fluorophenyl)-3-(cis-3-(((S)-4,7,8-trimethyl-6-oxo-5,6,7,8-tetrahydropteridin-2-yl)amino)cyclobutyl)urea]
[1]
  IC50: 300 to 1000 nM

## COCC1(C)C(=O)Nc2c(C)nc(N[C@H]3C[C@H](Oc4cc(F)c(F)c(F)c4)C3)nc2N1C (relative stereo) [Compound 719, 7-(methoxymethyl)-4,7,8-trimethyl-2-((trans-3-(3,4,5-trifluorophenoxy)cyclobutyl)amino)-7,8-dihydropteridin-6(5H)-one]
[1]
  IC50: < 300 nM

## CCN1C(=O)[C@@H](C)N(C(C)C)c2nc(NCc3cnn(Cc4cc(F)c(F)c(F)c4)c3)ncc21 [Compound I-1463]
[2]
  IC50: < 300 nM

## CC[C@H]1C(=O)N(C)c2cnc(NCc3cnn(Cc4cc(F)c(F)c(F)c4)c3)nc2N1C(C)C [Compound 36, (7S)-7-ethyl-8-isopropyl-5-methyl-2-(((1-(3,4,5-trifluorobenzyl)-1H-pyrazol-4-yl)methyl)amino)-7,8-dihydropteridin-6(5H)-one]
[1]
  IC50: < 300 nM

## Cc1cc(F)ncc1Cn1cc(CNc2nc(C)c3c(n2)N(C)[C@@H](C)C(=O)N3C)cn1 [Compound 205, (7S)-2-(((1-((6-fluoro-4-methylpyridin-3-yl)methyl)-1H-pyrazol-4-yl)methyl)amino)-4,5,7,8-tetramethyl-7,8-dihydropteridin-6(5H)-one]
[1]
  IC50: 300 to 1000 nM

## CO[C@H](C)[C@H]1C(=O)Nc2c(C)nc(NC3CN(C(=O)c4cc(F)c(F)c(F)c4)C3)nc2N1C [Compound 568, (S)-7-((R)-1-methoxyethyl)-4,8-dimethyl-2-((1-(3,4,5-trifluorobenzoyl)azetidin-3-yl)amino)-7,8-dihydropteridin-6(5H)-one]
[1]
  IC50: < 300 nM

## Cc1nc(NC2CN(Cc3ccccc3)C2)nc2c1NC(=O)[C@H](C)N2C [Compound 244, (7S)-2-((1-benzylazetidin-3-yl)amino)-4,7,8-trimethyl-7,8-dihydropteridin-6(5H)-one]
[1]
  IC50: ≥ 5000 nM

## COCC1(C)C(=O)Nc2c(C)nc(NC3CN(C(=O)c4cc(F)c(F)c(F)c4)C3)nc2N1C (stereo not shown) [Compound 722, 7-(methoxymethyl)-4,7,8-trimethyl-2-((1-(3,4,5-trifluorobenzoyl)azetidin-3-yl)amino)-7,8-dihydropteridin-6(5H)-one]
[3]
  IC50: 1000 to 5000 nM

## Cc1nc(NCc2cnn(Cc3ccc(F)cc3)c2)nc2c1NC(=O)[C@H](C(C)C)N2C [Compound 479, (S)-2-(((1-(4-fluorobenzyl)-1H-pyrazol-4-yl)methyl)amino)-7-isopropyl-4,8-dimethyl-7,8-dihydropteridin-6(5H)-one]
[1]
  IC50: < 300 nM

## Cc1nc(N[C@H]2C[C@H](NC(=O)N(C)C3CCC(F)(F)CC3)C2)nc2c1NC(=O)[C@H](C(C)C)N2C [Compound 537, 1-(4,4-difluorocyclohexyl)-3-(trans-3-(((S)-7-isopropyl-4,8-dimethyl-6-oxo-5,6,7,8-tetrahydropteridin-2-yl)amino)cyclobutyl)-1-methylurea]
[1]
  IC50: 1000 to 5000 nM

## C=C1C(=O)Nc2c(C)nc(NCc3cnn(Cc4ccc(C(F)(F)F)nc4)c3)nc2N1C [Compound 749, 4,8-dimethyl-7-methylene-2-(((1-((6-(trifluoromethyl)pyridin-3-yl)methyl)-1H-pyrazol-4-yl)methyl)amino)-7,8-dihydropteridin-6(5H)-one]
[1]
  IC50: 1000 to 5000 nM

## Cc1nc(NCc2cnn(Cc3ccc(F)cc3)c2)nc2c1N(C)C(=O)[C@@H](C)N2C [Compound I-866]
[2]
  IC50: 300 to 1000 nM

## COc1cc(OC[C@H]2C[C@@H](Nc3nc(C)c4c(n3)N(C)[C@@H](C)C(=O)N4)C2)cc(OC)c1OC [Compound 280, (7S)-4,7,8-trimethyl-2-((cis-3-((3,4,5-trimethoxyphenoxy)methyl)-cyclobutyl)amino)-7,8-dihydropteridin-6(5H)-one]
[1]
  IC50: < 300 nM

## Cc1nc(NCc2cnn([C@H](C)Cc3ccccc3)c2)nc2c1NC(=O)[C@H](C)N2C [Compound 101, (7S)-4,7,8-trimethyl-2-(((1-((R)—1-phenylpropan-2-yl)-1H-pyrazol-4-yl)methyl)amino)-7,8-dihydropteridin-6(5H)-one]
[1]
  IC50: < 300 nM

## Cc1nc(N[C@H]2C[C@H](NC(=O)Nc3cc(F)c(F)cc3F)C2)nc2c1NC(=O)[C@H](C)N2C [Compound 478, 1-(2,4,5-trifluorophenyl)-3-(trans-3-(((S)-4,7,8-trimethyl-6-oxo-5,6,7,8-tetrahydropteridin-2-yl)amino)cyclobutyl)urea]
[1]
  IC50: 1000 to 5000 nM

## Cc1nc(N[C@H]2C[C@H](Oc3ccc(F)nc3)C2)nc2c1N(C)C(=O)[C@H](C)N2C [Compound 358, (7S)-2-((trans 3-((6-fluoropyridin-3-yl)oxy)cyclobutyl)amino)-4,5,7,8-tetramethyl-7,8-dihydropteridin-6(5H)-one]
[1]
  IC50: 1000 to 5000 nM

## C[C@H]1C(=O)Nc2cnc(NCc3cnn(Cc4ccc(F)cc4)c3)nc2N1C [Compound 41, (7S)-2-(((1-(4-fluorobenzyl)-1H-pyrazol-4-yl)methyl)amino)-7,8-dimethyl-7,8-dihydropteridin-6(5H)-one]
[1]
  IC50: 300 to 1000 nM

## Cc1nc(NCc2cnn(Cc3ccccc3C(C)C)c2)nc2c1NC(=O)[C@H](C)N2C [Compound 78, (7S)-2-(((1-(2-isopropylbenzyl)-1H-pyrazol-4-yl)methyl)amino)-4,7,8-trimethyl-7,8-dihydropteridin-6(5H)-one]
[1]
  IC50: < 300 nM

## CC[C@H]1C(=O)Nc2c(C)nc(NCc3cnn(Cc4cnc(F)c(OC)c4)c3)nc2N1C [Compound 394, (7S)-7-Ethyl-2-(((1-((6-fluoro-5-methoxypyridin-3-yl)methyl)-1H-pyrazol-4-yl)methyl)amino)-4,8-dimethyl-7,8-dihydropteridin-6(5H)-one]
[1]
  IC50: < 300 nM

## CCC[C@@H]1C(=O)N(C)c2cnc(NCc3cnn(Cc4ccc(F)cc4)c3)nc2N1C [Compound I-984]
[2]
  IC50: 300 to 1000 nM

## Cc1nc(NCc2cnn(Cc3cc(F)c(F)c(F)c3)c2)nc2c1N(C)C(=O)[C@@H](C)N2C [Compound I-1229]
[2]
  IC50: < 300 nM

## Cc1nc(N[C@H]2C[C@H](Oc3ccc(OC(F)F)nc3)C2)nc2c1N(C)C(=O)[C@H](C)N2C [Compound 362, (7S)-2-((trans-3-((6-(difluoromethoxy)pyridin-3-yl)oxy)cyclobutyl)amino)-4,5,7,8-tetramethyl-7,8-dihydropteridin-6(5H)-one]
[1]
  IC50: 300 to 1000 nM

## COC1(C2C(=O)Nc3c(C)nc(N[C@H]4C[C@H](Oc5cc(F)c(F)c(F)c5)C4)nc3N2C)CCC1 (relative stereo) [Compound 667, 7-(1-methoxycyclobutyl)-4,8-dimethyl-2-((trans-3-(3,4,5-trifluorophenoxy)cyclobutyl)amino)-7,8-dihydropteridin-6(5H)-one]
[1]
  IC50: < 300 nM

## (7S)-4,5,7,8-tetramethyl-2-((trans-3-(3,4,5-trifluorophenoxy)cyclopentyl)amino)-7,8-dihydropteridin-6(5H)-one [Compound 269]
[3]
  IC50: < 300 nM

## COc1ccc(O[C@H]2C[C@H](Nc3nc(C)c4c(n3)N(C)[C@@H](C)C(=O)N4)C2)cc1F [Compound 350, (7S)-2-((trans-3-(3-fluoro-4-methoxyphenoxy)cyclobutyl)amino)-4,7,8-trimethyl-7,8-dihydropteridin-6(5H)-one]
[1]
  IC50: 300 to 1000 nM

## Cc1nc(NC2CC2COc2ccccc2)nc2c1NC(=O)[C@H](C)N2C (stereo partly drawn) [Compound 278, (7S)-4,7,8-trimethyl-2-((2-(phenoxymethyl)cyclopropyl)-amino)-7,8-dihydropteridin-6(5H)-one]
[1]
  IC50: 1000 to 5000 nM

## COc1c(F)cc(Cn2cc(CNc3nc(C)c4c(n3)N(C)[C@@H](C(C)C)C(=O)N4)nn2)cc1F [Compound 451, (S)-2-(((1-(3,5-difluoro-4-methoxybenzyl)-1H-1,2,3-triazol-4-yl)methyl)amino)-7-isopropyl-4,8-dimethyl-7,8-dihydropteridin-6(5H)-one]
[1]
  IC50: < 300 nM
